In patent US20130004579A1, “Use of Plant Lectins to Target Leukocytes” (priority 2011, published 2013):

B1: OVA alone: endotoxin-free ovalbumin antigen, 50 μg/mouse, without particles (protein, UniProt P01012 2-386, looked up)
Ovalbumin: GSIGAASMEFCFDVFKELKVHHANENIFYCPIAIMSALAMVYLGAKDSTRTQINKVVRFDKLPGFGDSIEAQCGTSVNVHSSLRDILNQITKPNDVYSFSLASRLYAEERYPILPEYLQCVKELYRGGLEPINFQTAADQARELINSWVESQTNGIIRNVLQPSSVDSQTAMVLVNAIVFKGLWEKAFKDEDTQAMPFRVTEQESKPVQMMYQIGLFRVASMASEKMKILELPFASGTMSMLVLLPDEVSGLEQLESIINFEKLTEWTSSNVMEERKIKVYLPRMKMEEKYNLTSVLMAMGITDVFSSSANLSGISSAESLKISQAVHAAHAEINEAGREVVGSAEAGVDAASVSEEFRADHPFLFCIKHIATNAVLFFGRCVSP
modifications: endotoxin-free
notes: endotoxin-free ovalbumin antigen, 50 μg/mouse, without particles
B2: PNA: SC-PS particles conjugated with biotinylated peanut agglutinin (conjugate, UniProt P02872 24-273, looked up)
Galactose-binding lectin: AETVSFNFNSFSEGNPAINFQGDVTVLSNGNIQLTNLNKVNSVGRVLYAMPVRIWSSATGNVASFLTSFSFEMKDIKDYDPADGIIFFIAPEDTQIPAGSIGGGTLGVSDTKGAGHFVGVEFDTYSNSEYNDPPTDHVGIDVNSVDSVKTVPWNSVSGAVVKVTVIYDSSTKTLSVAVTNDNGDITTIAQVVDLKAKLPERVKFGFSASGSLGGRQIHLIRSWSFTSTLITTTRRSIDNNEKKIMNMASA
modifications: biotinylated, on streptavidin polystyrene particles
notes: SC-PS particles conjugated with biotinylated peanut agglutinin

What was measured:
[1] = tested on: IL-1α production by bone marrow-derived dendritic cells (BMDCs); assay: IL-1α ELISA on supernatants of BMDCs incubated with particles; type: cell-based, mouse; conditions: C57BL/6 BMDCs; LPS 1 ng/ml; serial dilutions SC-PS 31.25 μg/ml to 1 mg/ml with lectin 1.56 to 50 μg/ml; vs unconjugated SC-PS
Protocol: (§1) BMDCs were isolated and cultured as described in Example 2 at a density of 6.25×10^5 cells/ml in 96 well U-bottomed microplates. Cells were stimulated with a Toll-like receptor (TLR) ligand (LPS or Pam2CSK4) for 6 hours. Cells were then incubated with either medium, alum/SC-PS particles, alum/SC-PS particles conjugated with UEA-1, alum/SC-PS particles conjugated with UEA-1 mimetic or with UEA-1 alone for 24 hours. After incubation, supernatants from BMDCs were collected and cytokine concentrations measured by ELISA. Antibody pairs specific for each cytokine were used for immunoassaying. The following cytokines were measured by immunoassay: IL-1α, IL-1β.
(§2) Capture antibodies were obtained from BD Pharmingen (San Diego, Calif.), BioLegend (San Diego, Calif.) and R&D Systems, Inc. (Minneapolis, Minn.) and prepared according to the manufacturer's specifications (see Table 2) and a volume of 40 μl/well added to high-binding 96 well ELISA plates. Plates were then incubated for 2 hours at 37° C. or overnight at 4° C. After incubation, plates were washed in PBS-T (×3) and tapped dry. Plates were then blocked with the appropriate blocking solution (see Table 2) and incubated for 2 hours at 37° C. After incubation plates were washed in PBS-T (×3) and tapped dry. Supernatants were transferred from cell culture plates to fresh 96 well plates. All supernatants were stored at −20° C. when not in use. Cell supernatants were applied to plates at the indicated dilutions (see Table 2). A blank triplicate was left on each plate containing the diluent as a blank. Standards were prepared at the starting concentration in the recommended diluent as specified by the manufacturer and transferred to a 96 well plate and serial dilutions (1:2) performed (see Table 2). All standards and samples were applied to plates at 40 μl/well total volume for incubation overnight at 4° C. After incubation plates were washed with PBS-T (×5) and tapped dry. […] Plates were then stopped by the addition of 20 μl/well of 1M H2SO4 and read. […]

[2] = tested on: IL-1β production by bone marrow-derived dendritic cells (BMDCs); assay: IL-1β ELISA on supernatants of BMDCs incubated with particles; type: cell-based, mouse; conditions: C57BL/6 BMDCs; LPS 1 ng/ml; serial dilutions SC-PS 31.25 μg/ml to 1 mg/ml with lectin 1.56 to 50 μg/ml; vs unconjugated SC-PS
Protocol: as §1, §2

[3] = tested on: IL-1α production by BMDCs from NLRP3−/− mice; assay: IL-1α ELISA on supernatants of NLRP3−/− BMDCs; type: cell-based, mouse; conditions: SC-PS 31.25 μg/ml to 1 mg/ml, lectin 1.56 to 50 μg/ml, vs untargeted particles
Protocol: as §1
(§3) Capture antibodies were obtained from BD Pharmingen (San Diego, Calif.), BioLegend (San Diego, Calif.) and R&D Systems, Inc. (Minneapolis, Minn.) and prepared according to the manufacturer's specifications (see Table 2) and a volume of 40 μl/well added to high-binding 96 well ELISA plates. Plates were then incubated for 2 hours at 37° C. or overnight at 4° C. After incubation, plates were washed in PBS-T (×3) and tapped dry. Plates were then blocked with the appropriate blocking solution (see Table 2) and incubated for 2 hours at 37° C. After incubation plates were washed in PBS-T (×3) and tapped dry. […] Plates were then stopped by the addition of 20 μl/well of 1M H2SO4 and read. […]

[4] = tested on: IL-1β production by BMDCs from NLRP3−/− mice; assay: IL-1β ELISA on supernatants of NLRP3−/− BMDCs; type: cell-based, mouse; conditions: SC-PS 31.25 μg/ml to 1 mg/ml, lectin 1.56 to 50 μg/ml
Protocol: as §1, §3

BALB/c mice = assay: OVA-specific cytokine responses of peritoneal cells after i.p. immunization; type: in vivo, mouse; conditions: i.p. days 0 and 35, day 42; OVA 100 μg/ml restimulation; comparison with OVA-loaded PS particles
Protocol: Five groups of 6-8 week old female BALB/c mice (five mice per group) were i.p, immunized on day 0 with a total volume of 200 μl of vaccine. All ovalbumin (OVA) used was endotoxin-free. The groups were:
On day 34, blood was collected from the tail vein of each mouse and used to measure serum antibody titres. The following day, mice were i.p. immunized with an identical series of booster vaccinations as on day 0. Mice were sacrificed on day 42 by cervical dislocation, and cells were harvested.
Spleens were removed from the mice, and single cell suspensions prepared as described above. Peritoneal lavages were also performed. Cells were plated onto 96 well U-bottomed plates at cell densities of 2×10^6 cells/ml for splenocytes and 1×10^6 cells/ml for peritoneal lavage cells in 200 μl of complete RPMI 1640 medium per well.
Cells were stimulated in vitro with PBS, endotoxin-free OVA (50 μg/ml, 100 μg/ml, 500 μg/ml), phorbol myristate acetate (PMA, 25 ng/ml) combined with anti-CD3 (1 μg/ml) or anti-CD3 alone (0.5 μg/ml). Cells were incubated with antigen for 3 days. Supernatants were then removed and IL-5, IL-10, IL-17 and IFN-γ cytokine concentrations were determined by ELISA. […]

Row | Molecule | TLR-4 agonist-primed IL-1α production [1] | TLR-4 agonist-primed IL-1β production [2] | IL-1α production in the absence of NLRP3 [3] | IL-1β production in the absence of NLRP3 [4] | antigen-specific IL-5 by peritoneal cells (BALB/c mice) | antigen-specific IL-17 by peritoneal cells (BALB/c mice)
1 | PHA-E: SC-PS particles conjugated with biotinylated Phaseolus vulgaris erthyroagglutinin | greatly increased IL-1α production and remained effective across four of the five serial dilutions | greatly increased IL-1β production and remained effective across four serial dilutions | enhances IL-1α production | not IL-β production | – | –
2 | PHA-L: SC-PS particles conjugated with biotinylated Phaseolus vulgaris leukoagglutinin | greatly increased IL-1α production and remained effective across four of the five serial dilutions | greatly increased IL-1β production and remained effective across four serial dilutions | enhances IL-1α production | not IL-1β production | – | –
3 | B1 | – | – | – | – | stronger | stronger
4 | B2 | increased IL-1α production across all five of the serial dilutions | increased | – | – | – | –
